Calls of active or inactive are those of the source. No rule for the calls is given here.
Test system: GENE-TOX genotoxicity assays, various organisms and cells
Experiment: GENE-TOX mutagenicity studies
Details: for call: Assay Type: In vivo carcinogenicity studies
[1] = Species/Cell Type: Salmonella typhimurium (one or more of the five standard strains: TA98, TA100, TA1535, TA1537, and TA1538), Assay Type: Histidine reverse gene mutation, Ames assay, Assay Code: SAL+, Evaluation Type: Evaluation A (Pre-1980)
[2] = Species/Cell Type: Salmonella typhimurium (one or more of the five standard strains: TA98, TA100, TA1535, TA1537, and TA1538), Assay Type: Histidine reverse gene mutation, Ames assay, Assay Code: SALT, Evaluation Type: Evaluation A (Pre-1980)
[3] = Species/Cell Type: Human, Assay Type: Sister-chromatid exchange (SCE) in vitro, Assay Code: SC1+D, Dose Response: With dose response, Evaluation Type: Evaluation B (Post-1980)
[4] = Species/Cell Type: Human lymphocytes, Assay Type: Sister-chromatid exchange (SCE) in vitro, Assay Code: SCL+D, Dose Response: With dose response, Evaluation Type: Evaluation B (Post-1980)
[5] = Species/Cell Type: Nonhuman, Assay Code: CCG+, Evaluation Type: Evaluation A (Pre-1980)
[6] = Species/Cell Type: Salmonella typhimurium (one or more of the five standard strains: TA98, TA100, TA1535, TA1537, and TA1538), Assay Type: Histidine reverse gene mutation, Ames assay, Assay Code: SAL-, Evaluation Type: Evaluation A (Pre-1980)

O=[N+]([O-])c1cc([N+](=O)[O-])c2ccc(S(=O)(=O)O)cc2c1O
mutagenic call (Species/Cell Type: Bacillus subtilis (H17 vs M45), Assay Type: Rec-assay, spot test, DNA effects (bacterial DNA repair), Assay Code: REWT, Evaluation Type: Evaluation A (Pre-1980)): no conclusion
mutagenic call (Species/Cell Type: Bacillus subtilis (H17 vs M45T), Assay Type: Rec-assay, spot test, DNA effects (bacterial DNA repair), Assay Code: REXT, Evaluation Type: Evaluation A (Pre-1980)): no conclusion
mutagenic call [1]: active; positive
mutagenic call [2]: no conclusion

CCC1(c2ccccc2)CCC(=O)NC1=O (stereo not drawn)
mutagenic call (Species/Cell Type: Drosophila melanogaster, Assay Type: Aneuploidy, sex chromosome gain, chromosome aberrations, Assay Code: DAG-M, Evaluation Type: Evaluation A (Pre-1980)): inactive; negative
mutagenic call (Species/Cell Type: Drosophila melanogaster, Assay Type: Aneuploidy, whole sex chromosome loss, chromosome aberrations, Assay Code: DAC-M, Evaluation Type: Evaluation A (Pre-1980)): inactive; negative

CC1=C(/C=C/C(C)=C/C=C/C(C)=C\C(=O)O)C(C)(C)CCC1
mutagenic call [3]: active; positive

CON
mutagenic call (Species/Cell Type: Drosophila melanogaster, Assay Type: Sex-linked recessive lethal gene mutation, Assay Code: SRLT, Evaluation Type: Evaluation A (Pre-1980)): no conclusion
mutagenic call (Species/Cell Type: Drosophila melanogaster, Sex: Male, Assay Type: Heritable translocation test, chromosome aberrations, Assay Code: DHTT, Evaluation Type: Evaluation A (Pre-1980)): no conclusion
mutagenic call (Species/Cell Type: Neurospora crassa, Assay Type: Reverse gene mutation, Assay Code: NER+, Evaluation Type: Evaluation A (Pre-1980)): active; positive
mutagenic call (Species/Cell Type: Saccharomyces cerevisiae, Assay Type: Mitotic recombination or gene conversion, Assay Code: YEH+, Evaluation Type: Evaluation A (Pre-1980)): active; positive

Cc1nccc2c1[nH]c1ccccc12
mutagenic call [4]: active; positive
mutagenic call [3]: active; positive
mutagenic call [2]: no conclusion

BrC(Br)Br
mutagenic call [4]: active; positive
mutagenic call [3]: active; positive
mutagenic call (Species/Cell Type: Nonhuman, Assay Type: Sister-chromatid exchange (SCE) in vitro, Assay Code: SC2+D, Dose Response: With dose response, Evaluation Type: Evaluation B (Post-1980)): active; positive
mutagenic call (Species/Cell Type: Nonhuman, Assay Type: Sister-chromatid exchange (SCE) in vivo, Assay Code: SC3+D, Dose Response: With dose response, Evaluation Type: Evaluation B (Post-1980)): active; positive

Cc1cccn2c1nc1ccc(N)nc12
mutagenic call (Species/Cell Type: Human, Assay Type: Sister-chromatid exchange (SCE) in vitro, Assay Code: SC1+D*, Activation: With metabolic activation, Dose Response: With dose response, Evaluation Type: Evaluation B (Post-1980)): active; positive

CCN(CC)Cc1cc(CC(=O)NN)ccc1OC
mutagenic call (Species/Cell Type: Saccharomyces cerevisiae, Assay Type: Reverse gene mutation, Assay Code: YERT, Evaluation Type: Evaluation A (Pre-1980)): no conclusion

COC(=O)[C@H]1[C@H]2C[C@@H]3c4[nH]c5cc(OC)ccc5c4CCN3C[C@H]2C[C@@H](OC(=O)c2cc(OC)c(OC)c(OC)c2)[C@@H]1OC
mutagenic call (Species/Cell Type: Aspergillus nidulans, Assay Type: Aneuploidy, chromosome aberrations, Assay Code: ASNT, Evaluation Type: Evaluation A (Pre-1980)): no conclusion
call [5]: active; positive

COc1cc2c(c3oc(=O)c4c(c13)CCC4=O)[C@@H]1C[C@H](O)O[C@@H]1O2
mutagenic call [2]: no conclusion

C[C@@H]1O[C@@H](OC[C@H]2O[C@@H](Oc3c(-c4ccc(O)c(O)c4)oc4cc(O)cc(O)c4c3=O)[C@H](O)[C@@H](O)[C@@H]2O)[C@H](O)[C@H](O)[C@H]1O
mutagenic call (Species/Cell Type: Mammalian polychromatic erythrocytes, Assay Type: Micronucleus test, chromosome aberrations, Assay Code: MNTT, Evaluation Type: Evaluation B (Post-1980)): no conclusion

O=C1c2ccccc2C(=O)c2c1cc(O[C@H]1O[C@H](CO[C@@H]3OC[C@@H](O)[C@H](O)[C@H]3O)[C@@H](O)[C@H](O)[C@H]1O)c(CO)c2O
mutagenic call (Species/Cell Type: Salmonella typhimurium (one or more of the five standard strains: TA98, TA100, TA1535, TA1537, and TA1538), Assay Type: Histidine reverse gene mutation, Ames assay, Assay Code: SAL+*, Activation: With metabolic activation, Evaluation Type: Evaluation A (Pre-1980)): active; positive

[O]=[V]
mutagenic call (Species/Cell Type: Bacillus subtilis (H17 vs M45), Assay Type: Rec-assay, spot test, DNA effects (bacterial DNA repair), Assay Code: REW+, Evaluation Type: Evaluation A (Pre-1980)): active; positive

NNC(=O)NC(=O)NN
mutagenic call (Species/Cell Type: Escherichia coli WP2, Assay Type: Tryptophan reverse gene mutation, Assay Code: WP2+, Evaluation Type: Evaluation A (Pre-1980)): active; positive

CCNC(=O)/C=C(C)/C=C/C=C(C)/C=C/c1c(C)cc(OC)c(C)c1C
mutagenic call (Species/Cell Type: Mouse (C3H/10T1/2) cells, Assay Type: Cell transformation, Assay Code: CTH-, Evaluation Type: Evaluation A (Pre-1980)): inactive; negative

O=[N+]([O-])c1ccc2[nH]ncc2c1
mutagenic call [1]: active; positive

NC(=S=O)c1ccccc1
mutagenic call (Species/Cell Type: Mammalian polychromatic erythrocytes, Assay Type: Micronucleus test, chromosome aberrations, Assay Code: MNT+U, Dose Response: Unconfirmed positive response, Evaluation Type: Evaluation B (Post-1980)): active; positive

Clc1ccc(C(c2ccc(Cl)cc2)C(Cl)(Cl)Cl)cc1
mutagenic call (Species/Cell Type: Chinese hamster lung (V79) cells, Assay Type: Forward gene mutation at the HPRT or ouabain locus, Assay Code: V79+, Evaluation Type: Evaluation A (Pre-1980)): active; positive
mutagenic call (Species/Cell Type: Drosophila melanogaster, Assay Type: Aneuploidy, partial sex chromosome loss, chromosome aberrations, Assay Code: DAP+M, Evaluation Type: Evaluation A (Pre-1980)): active; positive
mutagenic call (Species/Cell Type: Drosophila melanogaster, Assay Type: Aneuploidy, sex chromosome gain, chromosome aberrations, Assay Code: DAGT, Evaluation Type: Evaluation A (Pre-1980)): no conclusion
mutagenic call (Species/Cell Type: Drosophila melanogaster, Assay Type: Aneuploidy, whole sex chromosome loss, chromosome aberrations, Assay Code: DACT, Evaluation Type: Evaluation A (Pre-1980)): no conclusion
mutagenic call (Species/Cell Type: Drosophila melanogaster, Assay Type: Sex-linked recessive lethal gene mutation, Assay Code: SRL-, Evaluation Type: Evaluation A (Pre-1980)): inactive; negative
mutagenic call (Species/Cell Type: Escherichia coli polA (W3119 vs P3478), Assay Type: Rec-assay, DNA effects (bacterial DNA repair), Assay Code: RE1T, Evaluation Type: Evaluation A (Pre-1980)): no conclusion
mutagenic call (Species/Cell Type: Mammalian polychromatic erythrocytes, Assay Type: Micronucleus test, chromosome aberrations, Assay Code: MNTT, Evaluation Type: Evaluation A (Pre-1980)): no conclusion
mutagenic call (Species/Cell Type: Mouse, Sex: Male, Assay Type: Sperm morphology, Assay Code: SPI-, Evaluation Type: Evaluation A (Pre-1980)): inactive; negative
mutagenic call (Species/Cell Type: Nonhuman, Assay Type: Chromosome aberrations in vitro, Assay Code: CY&+, Evaluation Type: Evaluation A (Pre-1980)): active; positive
call [5]: active; positive
mutagenic call (Species/Cell Type: Rodents, Sex: Male, Assay Type: Dominant lethal test, Assay Code: DLTT, Evaluation Type: Evaluation A (Pre-1980)): no conclusion
mutagenic call (Species/Cell Type: Saccharomyces cerevisiae, Assay Type: Mitotic recombination or gene conversion, Assay Code: YEH-*, Activation: With metabolic activation, Evaluation Type: Evaluation A (Pre-1980)): inactive; negative
mutagenic call [6]: inactive; negative
mutagenic call (Species/Cell Type: Salmonella typhimurium, Serratia marcesens, Assay Type: Forward and reverse gene mutation, host-mediated assay, Assay Code: HM2-, Evaluation Type: Evaluation A (Pre-1980)): inactive; negative

OCc1ccn2c1[C@H](O)CC2
mutagenic call [4]: active; positive
mutagenic call [3]: active; positive

COc1ccc2nc3cc(Cl)ccc3c(NCCCNCCCl)c2c1
mutagenic call (Species/Cell Type: Chinese hamster ovary (CHO) cells, Assay Type: Forward gene mutation at the HPRT locus, Assay Code: CHO+D, Dose Response: With dose response, Evaluation Type: Evaluation A (Pre-1980)): active; positive
mutagenic call (Species/Cell Type: Human diploid fibroblasts, Assay Type: Unscheduled DNA synthesis (UDS) in vitro, DNA effects, Assay Code: UDH-, Evaluation Type: Evaluation A (Pre-1980)): inactive; negative
call (Species/Cell Type: Nonhuman, Assay Code: CCGT, Evaluation Type: Evaluation A (Pre-1980)): no conclusion
mutagenic call (Species/Cell Type: Saccharomyces cerevisiae, Assay Type: Forward and reverse gene mutation, mitotic recombination and gene conversion, host-mediated assay, Assay Code: HME+, Evaluation Type: Evaluation A (Pre-1980)): active; positive
mutagenic call (Species/Cell Type: Saccharomyces cerevisiae, Assay Type: Mitotic recombination or gene conversion, Assay Code: YEC+, Evaluation Type: Evaluation A (Pre-1980)): active; positive
mutagenic call [1]: active; positive

C(=C\c1ccccc1)/c1ccccc1
mutagenic call [6]: inactive; negative
